Results: patent US20240376108A1, “SALT AND CRYSTAL FORM OF PYRAZOLE-CONTAINING POLYCYCLIC DERIVATIVE, AND PREPARATION METHOD THEREFOR AND USE THEREOF” (Shanghai Hansoh Biomedical Co., Ltd., priority 2021, published 2024)

Columns and labels:
[1] = Hygroscopicity experiment (DVS); type: physicochemical; settings: 25° C.
Description: 7.1 Hygroscopicity experiment of crystal forms of different salts of compound 2-(2-cyano-5-oxo-8-(trifluoromethyl)pyrazolo[1,5-a]pyrido[3,2-e]pyrimidin-4(5H)-yl)-N-(5-fluoropyridin-2-yl)acetamide
7.1.1 Experimental objective: To investigate the hygroscopicity of crystal forms of different salts of compound 2-(2-cyano-5-oxo-8-(trifluoromethyl)pyrazolo[1,5-a]pyrido[3,2-e]pyrimidin-4(5H)-yl)-N-(5-fluoropyridin-2-yl)acetamide at different relative humidity, so as to provide a basis for storage.
7.1.2 Experimental protocol: Crystal forms of different salts of the compound were placed in saturated water vapor with different relative humidity to achieve dynamic equilibrium between the compound and water vapor, and the percentage of hygroscopic weight gain of the compound after equilibrium was calculated.

[2] = Solid stability experiment (high temperature, high humidity, high temperature and high humidity); type: physicochemical
Procedure: 4.1.1 Experimental objective: To investigate the physical and chemical stability of the crystal form of the compound under the conditions of high temperature, high humidity, as well as high temperature and high humidity, so as to provide a basis for crystal form screening and storage of the crystal form of the compound.
The content of the salt was determined by HPLC using the external standard method, and the change of relevant substances was calculated by using the chromatographic peak area normalization method.

[3] = Pharmacokinetic assay of the salt forms in rats (10 mg/kg); type: in vivo; settings: SD rats
Procedure: 2.3 Pharmacokinetic assay of the methanesulfonate in rats
2.3.1. Study objective: SD rats were used as test animals. The pharmacokinetic behavior of various salt forms of 2-(2-cyano-5-oxo-8-(trifluoromethyl)pyrazolo[1,5-a]pyrido[3,2-e]pyrimidin-4(5H)-yl)-N-(5-fluoropyridin-2-yl)acetamide was studied in rat body (plasma) by orally administration at a dose of 10 mg/kg.
2.3.2.4 Administration: After an overnight fast, male SD rats (3 rats per group) were administered p.o. with the test compound at a dose of 10 mg/kg and a volume of 10 mL/kg.
2.3.2.5 Sample collection: 0.2 mL of blood was taken from the jugular vein of the rat before administration and at 0, 0.5, 1, 2, 4, 6, 8 and 24 hours after administration. The samples were stored in EDTA-K2 tubes, and centrifuged for 6 minutes at 4° C., 6000 rpm to separate the plasma. The plasma samples were stored at −80° C.
1) 160 μL of acetonitrile was added to 40 μL of the plasma sample for precipitation, and then the mixture was centrifuged at 3500×g for 5 to 20 minutes.
2) After the above process, 100 μL of the supernatant was taken to analyze the concentration of the test compound by LC/MS/MS.
2.3.2.7 Liquid chromatography analysis • Liquid chromatography condition: Shimadzu LC-20AD pump • Mass spectrometry condition: AB Sciex API 4000 mass spectrometer • Chromatographic column: phenomenex Gemiu 5 um C18 50×4.6 mm • Mobile phase: Eluent A was 0.1% formic acid in water, and Eluent B was acetonitrile • Flow rate: 0.8 mL/min • Elution time: 0-4.0 minutes, the eluent is as follows:
The main parameters of pharmacokinetics were calculated by WinNonlin 8.2.

[4] = Cycle 1, target relative humidity 0.0%
[5] = Cycle 1, target relative humidity 10.0%
[6] = Cycle 1, target relative humidity 20.0%
[7] = Cycle 1, target relative humidity 30.0%
[8] = Cycle 1, target relative humidity 40.0%
[9] = Cycle 1, target relative humidity 50.0%
[10] = Cycle 1, target relative humidity 60.0%
[11] = Cycle 1, target relative humidity 70.0%
[12] = Cycle 1, target relative humidity 80.0%
[13] = Cycle 1, target relative humidity 90.0%
[14] = Cycle 1, target relative humidity 95.0%
[15] = Cycle 2, target relative humidity 0.0%
[16] = Cycle 2, target relative humidity 10.0%
[17] = Cycle 2, target relative humidity 20.0%
[18] = Cycle 2, target relative humidity 30.0%
[19] = Cycle 2, target relative humidity 40.0%
[20] = Cycle 2, target relative humidity 50.0%
[21] = Cycle 2, target relative humidity 60.0%
[22] = Cycle 2, target relative humidity 70.0%
[23] = Cycle 2, target relative humidity 80.0%
[24] = Cycle 2, target relative humidity 90.0%
[25] = Cycle 2, target relative humidity 95.0%
[26] = High humidity (92.5% RH), Day 7
[27] = High humidity (92.5% RH), Day 14
[28] = High temperature (60° C.), Day 7
[29] = High temperature (60° C.), Day 14
[30] = High temperature and high humidity (50° C.&75% RH), Day 7
[31] = High temperature and high humidity (50° C.&75% RH), Day 14

In the case of `N#Cc1cc2n(CC(=O)Nc3ccc(F)cn3)c(=O)c3ccc(C(F)(F)F)nc3n2n1.O=S(=O)(O)O` [Sulfate (crystal form B), 2-(2-cyano-5-oxo-8-(trifluoromethyl)pyrazolo[1,5-a]pyrido[3,2-e]pyrimidin-4(5H)-yl)-N-(5-fluoropyridin-2-yl)acetamide sulfate], the “% percentage of mass change, Desorption” value [1, 4] is reported as −0.027%, the “% percentage of mass change, Sorption” value [1, 4] is reported as −0.002% and the “% percentage of mass change, Desorption” value [1, 5] is reported as 0.087%. For the same compound, the “% percentage of mass change, Sorption” value [1, 5] was 0.099%, the “% percentage of mass change, Desorption” value [1, 6] was 0.168% and the “% percentage of mass change, Sorption” value [1, 6] was 0.171%. For the same compound, the “% percentage of mass change, Desorption” value [1, 7] was 0.250%, the “% percentage of mass change, Sorption” value [1, 7] was 0.236% and the “% percentage of mass change, Desorption” value [1, 8] was 0.341%. For the same compound, the “% percentage of mass change, Sorption” value [1, 8] was 0.303%, the “% percentage of mass change, Desorption” value [1, 9] was 0.456% and the “% percentage of mass change, Sorption” value [1, 9] was 0.376%. For the same compound, the “% percentage of mass change, Desorption” value [1, 10] was 0.540%, the “% percentage of mass change, Sorption” value [1, 10] was 0.455% and the “% percentage of mass change, Desorption” value [1, 11] was 0.652%. For the same compound, the “% percentage of mass change, Sorption” value [1, 11] was 0.552%, the “% percentage of mass change, Desorption” value [1, 12] was 0.777% and the “% percentage of mass change, Sorption” value [1, 12] was 0.691%. The “% percentage of mass change, Desorption” value [1, 13] was 1.118%, the “% percentage of mass change, Sorption” value [1, 13] was 1.010% and the “% percentage of mass change, Desorption” value [1, 14] was 1.608%. For the same compound, the “% percentage of mass change, Sorption” value [1, 14] was 1.608%, the “% percentage of mass change, Desorption” value [1, 15] was −0.051% and the “% percentage of mass change, Sorption” value [1, 15] was −0.027%. For the same compound, the “% percentage of mass change, Desorption” value [1, 16] was 0.065%, the “% percentage of mass change, Sorption” value [1, 16] was 0.070% and the “% percentage of mass change, Desorption” value [1, 17] was 0.149%. The “% percentage of mass change, Sorption” value [1, 17] was 0.147%, the “% percentage of mass change, Desorption” value [1, 18] was 0.230% and the “% percentage of mass change, Sorption” value [1, 18] was 0.218%. The “% percentage of mass change, Desorption” value [1, 19] was 0.322%, the “% percentage of mass change, Sorption” value [1, 19] was 0.287% and the “% percentage of mass change, Desorption” value [1, 20] was 0.422%. The “% percentage of mass change, Sorption” value [1, 20] was 0.369%, the “% percentage of mass change, Desorption” value [1, 21] was 0.529% and the “% percentage of mass change, Sorption” value [1, 21] was 0.450%. The “% percentage of mass change, Desorption” value [1, 22] was 0.632%, the “% percentage of mass change, Sorption” value [1, 22] was 0.545% and the “% percentage of mass change, Desorption” value [1, 23] was 0.761%. For the same compound, the “% percentage of mass change, Sorption” value [1, 23] was 0.682%, the “% percentage of mass change, Desorption” value [1, 24] was 1.087% and the “% percentage of mass change, Sorption” value [1, 24] was 1.007%. For the same compound, the “% percentage of mass change, Desorption” value [1, 25] was 1.618%, the “% percentage of mass change, Sorption” value [1, 25] was 1.618% and the “solid stability under high humidity” value ([2]; 92.5% RH, 7 and 14 days) was “stable”. For the same compound, the “% increase of total impurities” value [2, 26] was under 0.1%, the “% maximum increase of single impurity” value [2, 26] was under 0.1% and the “% increase of total impurities” value [2, 27] was under 0.1%. For the same compound, the “% maximum increase of single impurity” value [2, 27] was under 0.1%, the “% increase of total impurities” value [2, 28] was over 0.2% and the “% maximum increase of single impurity” value [2, 28] was under 0.1%. For the same compound, the “% increase of total impurities” value [2, 29] was over 0.4%, the “% maximum increase of single impurity” value [2, 29] was over 0.1% and the “% increase of total impurities” value [2, 30] was over 0.2%. For the same compound, the “% maximum increase of single impurity” value [2, 30] was over 0.1%, the “% increase of total impurities” value [2, 31] was over 0.2% and the “% maximum increase of single impurity” value [2, 31] was over 0.1%. The “exposure AUC and maximum plasma concentration Cmax compared with the free base” value ([3]; 10 mg/kg) was “superior”, the AUC(0-t) ([3]; male, rat, po, p.o. 10 mg/kg, plasma, vehicle 0.5% HPMC, read-out: Area under curve AUC0-t) was 21600 ng·h/mL and the MRT inf ([3]; male, rat, po, p.o. 10 mg/kg, plasma, vehicle 0.5% HPMC, read-out: Average residence time MRT0-∞) was 4.6 h. The half-life ([3]; male, rat, po, p.o. 10 mg/kg, plasma, vehicle 0.5% HPMC, read-out: Half life t1/2 (converted)) was 2.8 h, the Tmax ([3]; male, rat, po, p.o. 10 mg/kg, plasma, vehicle 0.5% HPMC, read-out: Peak time tmax) was 2 h and the Cmax ([3]; male, rat, po, p.o. 10 mg/kg, plasma, vehicle 0.5% HPMC, read-out: Plasma concentration Cmax) was 3080 ng/mL.
